Measurements taken from ChEMBL document CHEMBL1667785, “Synthesis and structure-analgesic activity relationships of a novel series of monospirocyclopiperazinium salts (MSPZ)” (Bioorg Med Chem Lett, 2011).

Each molecule was assayed against Neuronal acetylcholine receptor subunit alpha-7 (Homo sapiens, UniProt P36544) (assay: Binding affinity to alpha7 nAChR).
Sequence of Neuronal acetylcholine receptor subunit alpha-7 (P36544 whole entry): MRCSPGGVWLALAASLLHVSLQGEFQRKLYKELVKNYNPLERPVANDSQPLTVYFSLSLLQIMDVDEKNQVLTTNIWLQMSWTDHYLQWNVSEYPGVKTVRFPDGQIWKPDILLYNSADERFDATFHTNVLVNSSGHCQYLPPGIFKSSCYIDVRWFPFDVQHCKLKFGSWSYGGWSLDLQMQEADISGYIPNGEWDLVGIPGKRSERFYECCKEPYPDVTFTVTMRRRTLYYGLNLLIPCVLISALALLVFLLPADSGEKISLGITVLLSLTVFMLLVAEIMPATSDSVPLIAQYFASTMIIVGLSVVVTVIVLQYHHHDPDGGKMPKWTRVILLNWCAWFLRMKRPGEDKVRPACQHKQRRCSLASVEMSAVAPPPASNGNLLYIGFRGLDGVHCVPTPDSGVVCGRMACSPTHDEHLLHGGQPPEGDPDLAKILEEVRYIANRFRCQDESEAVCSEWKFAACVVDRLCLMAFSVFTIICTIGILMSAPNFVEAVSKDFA

With `CC(COc1ccc(/C=C\c2ccccc2)cc1)[N+](C)(C)C` (centres undefined) the Ki was 0.057 µM.

What follows are molecules tested against Neuronal acetylcholine receptor subunit beta-2 (Homo sapiens, UniProt P17787) (assay: Binding affinity to beta2 nAChR).
Sequence of Neuronal acetylcholine receptor subunit beta-2 (P17787 whole entry): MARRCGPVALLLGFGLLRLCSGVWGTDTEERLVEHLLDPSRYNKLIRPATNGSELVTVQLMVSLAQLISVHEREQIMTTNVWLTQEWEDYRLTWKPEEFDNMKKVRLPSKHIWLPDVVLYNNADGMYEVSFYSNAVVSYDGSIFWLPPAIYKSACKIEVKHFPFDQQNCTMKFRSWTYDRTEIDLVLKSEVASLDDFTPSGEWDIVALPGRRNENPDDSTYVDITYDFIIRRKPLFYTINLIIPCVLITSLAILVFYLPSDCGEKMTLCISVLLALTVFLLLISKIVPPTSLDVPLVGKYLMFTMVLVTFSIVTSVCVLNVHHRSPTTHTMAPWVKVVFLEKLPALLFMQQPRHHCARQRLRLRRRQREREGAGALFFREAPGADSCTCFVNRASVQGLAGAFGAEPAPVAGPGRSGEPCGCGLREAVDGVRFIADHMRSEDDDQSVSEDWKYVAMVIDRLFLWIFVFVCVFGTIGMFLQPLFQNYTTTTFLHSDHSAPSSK

Work on `CC(COc1ccc(/C=C\c2ccccc2)cc1)[N+](C)(C)C` (centres undefined) yielded a Ki of 39 µM.

The molecules below were run on Mus musculus (assay: Analgesic activity in mouse assessed as inhibition of acetic acid-induced writhing at 20 umol/kg, sc administered 30 mins before to acetic acid challenge measured after 5 mins for 10 mins relative to control).
Assay type: functional
Design: scale not given: the % may be the effect or the level left

Point of comparison: `COc1ccccc1N1CC[N+]2(CCc3ccccc32)CC1.[Cl-]`, Activity 39%. Against it:
- COc1ccc(N2CC[N+](C)(C)CC2)cc1.[Cl-] — higher, 56%
- CCCC[N+]1(CCCC)CCN(c2ccc(OC)cc2)CC1.[Cl-] — higher, 54%
- COc1ccc(N2CC[N+](C)(Cc3ccccc3)CC2)cc1.[Cl-] — higher, 43%
- COc1ccc(N2CC[N+]3(CCCC3)CC2)cc1.[Cl-] — higher, 41%
- COc1ccc(N2CC[N+]3(CCCCC3)CC2)cc1.[Cl-] — lower, 26%
- COc1ccc(N2CC[N+]3(CCCCCC3)CC2)cc1.[Cl-] — lower, 28%
- COc1ccc(N2CC[N+]3(CCOCC3)CC2)cc1.[Cl-] — higher, 41%
- COc1ccc(N2CC[N+]3(CC2)CC(C)OC(C)C3)cc1.[Cl-] (centres undefined) — lower, 21%
- COc1ccc(N2CC[N+]3(CCNCC3)CC2)cc1.[Cl-] — lower, 5%
- COc1ccc(N2CC[N+]3(CCN(C)CC3)CC2)cc1.[Cl-] — lower, 32%
- COc1ccc(N2CC[N+]3(CCN(CCc4ccccc4)CC3)CC2)cc1.[Cl-] — lower, 27%
- COc1ccc(N2CC[N+]3(CC2)CCN(c2ccc(OC)cc2)CC3)cc1.[Cl-] — lower, 17%
- COc1ccc(N2CC[N+]3(CCN(C(=O)c4ccccc4)CC3)CC2)cc1.[Cl-] — higher, 50%
- COc1ccc(N2CC[N+]3(CCc4ccccc43)CC2)cc1.[Cl-] — higher, 63%
- [Cl-].c1ccc(N2CC[N+]3(CCc4ccccc43)CC2)cc1 — lower, 28%
- CS(=O)(=O)[O-].O=[N+]([O-])c1ccc(N2CC[N+]3(CCc4ccccc43)CC2)cc1 — higher, 54%
- CS(=O)(=O)[O-].O=[N+]([O-])c1cccc(N2CC[N+]3(CCc4ccccc43)CC2)c1 — the same, 39%
- COc1cccc(N2CC[N+]3(CCc4ccccc43)CC2)c1.[Cl-] — lower, 37%
- Oc1cccc(N2CC[N+]3(CCc4ccccc43)CC2)c1.[Cl-] — lower, 34%
- CC(=O)Nc1cccc(N2CC[N+]3(CCc4ccccc43)CC2)c1.[Cl-] — the same, 39%
- Clc1ccccc1N1CC[N+]2(CCc3ccccc32)CC1.[Cl-] — higher, 44%
